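Exposure lasted 48 hours, with cells grown in 96-well plates and compounds tested at five concentrations. GI50: concentration for 50% inhibition of growth. TGI: concentration producing complete growth inhibition.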
Tests used:
Experiment in all cases: NCI-60 cell line screen, 48 h
[1] = tested on: SF-295 CNS
[2] = tested on: HL-60(TB) leukemia
[3] = tested on: SNB-19 CNS
[4] = tested on: OVCAR-8 ovarian
[5] = tested on: TK-10 renal
[6] = tested on: SK-MEL-5 melanoma
[7] = tested on: SK-MEL-28 melanoma
[8] = tested on: NCI-H460 lung
[9] = tested on: SK-MEL-2 melanoma
[10] = tested on: SR leukemia

| Structure (SMILES) | TGI [1] [µM] | TGI [2] [µM] | TGI [3] [µM] | TGI [4] [µM] | TGI [5] [µM] | TGI [6] [µM] | TGI [7] [µM] | TGI [8] [µM] | TGI [9] [µM] | TGI [10] [µM] | GI50 [1] [µM] | GI50 [2] [µM] | GI50 [3] [µM] | GI50 [4] [µM] | GI50 [5] [µM] | GI50 [6] [µM] | GI50 [7] [µM] | GI50 [8] [µM] | GI50 [9] [µM] |
| --- | --- | --- | --- | --- | --- | --- | --- | --- | --- | --- | --- | --- | --- | --- | --- | --- | --- | --- | --- |
| CC(=O)Nc1c(S(=O)(=O)c2ccccc2)c(C)c(C)n1Cc1ccccc1 | > 100 | > 100 | > 100 | > 100 | > 100 | > 100 | > 100 | > 100 | > 100 |  |  |  |  |  |  |  |  |  |  |
| Clc1ccc(-c2cn3c(nc4ccccc43)c(/C=C/c3ccco3)n2)cc1 |  | 41.7 | > 100 |  | 82 | > 100 | > 100 | > 100 | 41.6 | 41.4 |  |  |  |  |  |  |  |  |  |
| COC(=O)N[C@H](C(=O)O)C(C)O[Si](C)(C)C(C)(C)C (stereo partly specified) | > 100 | > 100 | > 100 | > 100 | > 100 | > 100 | > 100 | > 100 |  | > 100 |  |  |  |  |  |  |  |  |  |
| CSc1ccn(C2CC(F)C(CO)O2)c(=O)n1 (stereo unspecified) | > 100 | > 100 | > 100 | > 100 | > 100 | > 100 |  | > 100 | > 100 | > 100 |  |  |  |  |  |  |  |  |  |
| Cc1nc(C)c(N2CCNCC2)c(=O)[nH]1 | > 100 | > 100 | > 100 | > 100 | > 100 | > 100 | > 100 | > 100 |  | > 100 |  |  |  |  |  |  |  |  |  |
| O=C(NC(=O)c1cc(-c2ccccc2)n[nH]1)c1ccccc1 | > 100 |  |  | > 100 | > 100 | > 100 | > 100 | > 100 | > 100 | 79.2 |  |  |  |  |  |  |  |  |  |
| O=C(CSc1nc(-c2ccccc2)c(-c2ccccc2)[nH]1)N/N=C/c1ccc(O)cc1 | 57.4 | 62.3 | > 100 | 48 | 72.3 |  | > 100 | 44.8 | 67.2 | > 100 |  |  |  |  |  |  |  |  |  |
| Cc1sc2c(c1C)/C(=N\O)c1cccn1-2 | > 100 |  | 63.2 | > 100 | > 100 | > 100 | > 100 | > 100 | > 100 | > 100 |  |  |  |  |  |  |  |  |  |
| COc1cc(OC)c2c3c(OC)cc(OC)c4c(=O)c(O)c(C[C@@H](C)O)c(c5c(C[C@@H](C)O)c(O)c(=O)c1c25)c43 | > 100 | 30.7 | > 100 | 58.4 | > 100 | 28.4 | 42 | > 100 | 68 |  |  |  |  |  |  |  |  |  |  |
| O=C(c1ccccc1)C1S(=O)(=O)OCCOS1(=O)=O | > 100 | > 100 | > 100 | > 100 | > 100 | > 100 | > 100 |  | > 100 | > 100 |  |  |  |  |  |  |  |  |  |
| CCN(CC)CCN1C(=O)c2c(c3c4ccccc4[nH]c3c3ccc4ccccc4c23)C1=O | 2.03 | 4.35 | 2.88 | 4.74 | 3.34 | 3.12 | 3.18 | 2.44 | 6.5 |  | 0.722 | 2.04 | 1.5 | 1.78 | 1.77 | 1.71 | 1.74 | 1.08 | 2.51 |
| c1csc(-c2ccsc2-c2cccs2)c1 | > 100 | 86.7 |  | > 100 | > 100 | > 100 |  | > 100 |  | 21.3 |  |  |  |  |  |  |  |  |  |
| O=C1N2Cc3c4ccc5c3CN3C(=O)N6Cc7c(ccc(c7CN1C6(c1ccccc1)C23c1ccccc1)OCCOCCNCCOCCO4)OCCOCCNCCOCCO5 (stereo unspecified) | > 100 |  | > 100 | > 100 | 56 | > 100 | > 100 | > 100 | > 100 | > 100 |  |  |  |  |  |  |  |  |  |
| CC(=O)NC(C)(C)C1CCC(C)=C(c2ccccc2)C1 (stereo unspecified) | > 100 | > 100 | > 100 | > 100 | > 100 | > 100 | > 100 | > 100 |  | > 100 |  |  |  |  |  |  |  |  |  |
| C=C(C)COC1CCCCO1 (stereo unspecified) | > 100 | > 100 | > 100 | > 100 | > 100 | > 100 | > 100 | > 100 | > 100 |  |  |  |  |  |  |  |  |  |  |
| O=C(/C=C(\S/C=C(/c1ccccc1)N1CCn2c(C(=O)c3ccccc3)c(C(=O)c3ccccc3)c(C(=O)c3ccccc3)c21)C(=O)c1ccccc1)c1ccccc1 | > 10 | > 10 | > 10 | > 10 | > 10 | > 10 | > 10 | > 10 | > 10 |  |  |  |  |  |  |  |  |  |  |
| NC(CSSCC(N)=NCC12CC3CC(CC(C3)C1)C2)=NCC12CC3CC(CC(C3)C1)C2 | 31.3 | 26.3 | 41.5 | 51.4 | 36.3 | 36.5 | 44.4 | > 100 | 55.1 |  |  |  |  |  |  |  |  |  |  |

| Structure (SMILES) | TGI [1] [µM] | TGI [2] [µM] | TGI [3] [µM] | TGI [4] [µM] | TGI [5] [µM] | TGI [6] [µM] | TGI [7] [µM] | TGI [8] [µM] | TGI [9] [µM] | TGI [10] [µM] | GI50 [1] [µM] | GI50 [2] [µM] | GI50 [3] [µM] | GI50 [4] [µM] | GI50 [5] [µM] | GI50 [6] [µM] | GI50 [7] [µM] | GI50 [8] [µM] | GI50 [9] [µM] |
| --- | --- | --- | --- | --- | --- | --- | --- | --- | --- | --- | --- | --- | --- | --- | --- | --- | --- | --- | --- |
| O=C(Nc1cccc([N+](=O)[O-])c1)c1n[nH]n(-c2cccc([N+](=O)[O-])c2)c1=O | > 100 | > 100 | > 100 | > 100 |  | > 100 | > 100 |  | > 100 | > 100 |  |  |  |  |  |  |  |  |  |
| CCOC(=O)C(NC(=O)c1ccccc1)(N1CCN(c2cc3c(cc2F)c(=O)c(C(=O)O)cn3CC)CC1)C(F)(F)F (stereo unspecified) | > 100 | 43 | > 100 | 47.3 | 94.8 | 65.7 |  | > 100 | > 100 | 62.5 |  |  |  |  |  |  |  |  |  |
| NC1=Nc2cc(Cl)ccc2Sc2nc3ccccc3n21 | > 100 | 7.49 | > 100 | > 100 | > 100 | > 100 | > 100 | > 100 | > 100 |  |  |  |  |  |  |  |  |  |  |
| CC(=O)Oc1c(N2CCCCC2)c(C(=O)c2ccccc2)c(O)c2ccn(N(C)C)c12 | 42.4 | 29.5 | 64.3 | 58.1 | 36.8 | 29.7 | 34.8 | 51.2 | 54.6 |  |  |  |  |  |  |  |  |  |  |
| O=c1ccn(C2OC(CO)C(O)C2F)c(=O)n1Cc1ccccc1 (stereo unspecified) | > 100 | > 100 | > 100 | > 100 | > 100 | > 100 | > 100 |  |  | > 100 |  |  |  |  |  |  |  |  |  |
| CC1(C)CCC(C)(C)C1C(=O)NC(O)C(=O)O (stereo unspecified) |  | > 100 | > 100 | > 100 | > 100 | > 100 | > 100 | > 100 | > 100 | > 100 |  |  |  |  |  |  |  |  |  |
| S=c1[nH]n2c(CCCCCCCCc3nnc4sc(=S)[nH]n34)nnc2s1 | > 100 | > 100 | > 100 | > 100 |  |  | > 100 | > 100 | > 100 | > 100 |  |  |  |  |  |  |  |  |  |
| O=C(CC1OC(O)C(Cl)=C1Cl)c1cccnc1 (stereo unspecified) | > 100 | > 100 | > 100 | > 100 | > 100 | > 100 | > 100 | > 100 |  | > 100 |  |  |  |  |  |  |  |  |  |
| C=C1C(=O)O[C@@H]2[C@H](O)[C@@H](C)[C@@H]3C=CC(=O)[C@@]3(C)[C@@H](OC(=O)/C(C)=C/C)[C@H]12 | 8.34 | 9.82 | 6.92 | 2.72 |  | 4.43 | 1.34 | 1.93 | 2.78 |  |  |  |  |  |  |  |  |  |  |
| Cc1oc2c(c1C)S(=O)(=O)C(C#N)=C(N(C)C)N2 | > 100 |  | > 100 | > 100 | > 100 | > 100 | > 100 | > 100 | > 100 |  |  |  |  |  |  |  |  |  |  |
| Cc1cccc(N2C(=O)C3c4[nH]c5ccccc5c4C4CCC(C(C)(C)C)CC4C3C2=O)c1 (stereo unspecified) | 21.9 | > 100 | 26 | 13.3 | 27.2 | 28.4 | 31.4 | 19 | 34.4 |  |  |  |  |  |  |  |  |  |  |
| N=c1c2c(=S)n(-c3ccccc3)c(=S)n(-c3ccccc3)c2nc(SCCN2CCCC2)n1-c1ccccc1 | 32.9 | 0.88 | 31.6 | 4.2 | 3.03 | 12.1 | > 38.7 | 3.63 | 13.9 |  |  |  |  |  |  |  |  |  |  |
| Cc1ccc(C(=O)Nc2ccc(CP(=O)(O)O)cc2CP(=O)(O)O)cc1NC(=O)Nc1cc(C(=O)Nc2ccc(CP(=O)(O)O)cc2CP(=O)(O)O)ccc1C | > 100 | > 100 | > 100 | > 100 | > 100 | > 100 | > 100 | > 100 | > 100 |  |  |  |  |  |  |  |  |  |  |
| CCOC(=O)NC(OC)(C(F)(F)F)C(F)(F)F | > 100 | > 100 | > 100 | > 100 | > 100 | > 100 | > 100 | > 100 |  | > 100 |  |  |  |  |  |  |  |  |  |
| COC(=O)c1c(C#N)c(N)nc2c1CCC2 | > 100 | > 100 | > 100 | > 100 | > 100 | > 100 | > 100 | > 100 | > 100 |  |  |  |  |  |  |  |  |  |  |
| Cc1ccc(C2=C(C#N)C(N)OC3=C2COc2ccccc23)cc1 (stereo unspecified) |  | > 100 | 41.9 |  | 44.4 | > 100 | > 100 | > 100 | > 100 | > 100 |  |  |  |  |  |  |  |  |  |

Reference: PubChem BioAssay (NCI)
